From ChEMBL document CHEMBL2016457, “Discovery of potent and orally bioavailable 17β-hydroxysteroid dehydrogenase type 3 inhibitors” (Bioorg Med Chem, 2012)
Active and inactive are the calls of the source. How the calls were made is not given here.

Experiments:
[1] = target: T1, 17-beta-hydroxysteroid dehydrogenase type 1 (Homo sapiens) (UniProt P14061); test: Inhibition of human recombinant 17-beta-HSD1 expressed in human HeLa cells using estrone as substrate preincubated for 30 mins prior substrate addition measured after 120 mins by spectrophotometry; assay type: cell-based
T1 sequence (whole entry): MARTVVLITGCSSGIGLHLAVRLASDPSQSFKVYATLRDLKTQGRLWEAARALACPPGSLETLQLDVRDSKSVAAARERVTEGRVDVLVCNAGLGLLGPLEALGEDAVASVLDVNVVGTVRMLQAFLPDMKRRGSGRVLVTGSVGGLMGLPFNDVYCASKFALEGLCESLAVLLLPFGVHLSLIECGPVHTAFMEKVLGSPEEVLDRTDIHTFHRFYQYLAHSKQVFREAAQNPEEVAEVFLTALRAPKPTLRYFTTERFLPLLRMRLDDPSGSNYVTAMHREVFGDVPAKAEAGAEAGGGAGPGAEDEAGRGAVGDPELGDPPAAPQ

[2] = target: T2, 17-beta-hydroxysteroid dehydrogenase type 2 (Homo sapiens) (UniProt P37059); test: Inhibition of human recombinant 17-beta-HSD2 expressed in human HeLa cells using estradiol as substrate preincubated for 30 mins prior substrate addition measured after 120 mins by spectrophotometry; assay type: cell-based
T2 sequence (whole entry): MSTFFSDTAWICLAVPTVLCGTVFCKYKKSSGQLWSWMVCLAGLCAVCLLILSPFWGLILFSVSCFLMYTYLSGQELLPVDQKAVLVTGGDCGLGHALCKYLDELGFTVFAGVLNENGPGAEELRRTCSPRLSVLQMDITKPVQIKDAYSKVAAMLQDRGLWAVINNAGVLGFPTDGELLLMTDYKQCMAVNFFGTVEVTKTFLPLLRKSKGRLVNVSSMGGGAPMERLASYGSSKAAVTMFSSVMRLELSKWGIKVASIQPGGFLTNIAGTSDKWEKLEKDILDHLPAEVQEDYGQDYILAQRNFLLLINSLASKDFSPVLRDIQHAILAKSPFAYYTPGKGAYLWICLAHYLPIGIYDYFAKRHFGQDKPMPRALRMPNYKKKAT

[3] = target: T3, Estrogen receptor (Homo sapiens) (UniProt P03372); test: Antagonist activity at human ERalpha receptor expressed in human HeLa cells assessed as inhibition of DHT-induced response after 40 hrs by luciferase/beta-galactosidase-based reporter gene assay; assay type: functional, cell-based
T3 sequence (whole entry): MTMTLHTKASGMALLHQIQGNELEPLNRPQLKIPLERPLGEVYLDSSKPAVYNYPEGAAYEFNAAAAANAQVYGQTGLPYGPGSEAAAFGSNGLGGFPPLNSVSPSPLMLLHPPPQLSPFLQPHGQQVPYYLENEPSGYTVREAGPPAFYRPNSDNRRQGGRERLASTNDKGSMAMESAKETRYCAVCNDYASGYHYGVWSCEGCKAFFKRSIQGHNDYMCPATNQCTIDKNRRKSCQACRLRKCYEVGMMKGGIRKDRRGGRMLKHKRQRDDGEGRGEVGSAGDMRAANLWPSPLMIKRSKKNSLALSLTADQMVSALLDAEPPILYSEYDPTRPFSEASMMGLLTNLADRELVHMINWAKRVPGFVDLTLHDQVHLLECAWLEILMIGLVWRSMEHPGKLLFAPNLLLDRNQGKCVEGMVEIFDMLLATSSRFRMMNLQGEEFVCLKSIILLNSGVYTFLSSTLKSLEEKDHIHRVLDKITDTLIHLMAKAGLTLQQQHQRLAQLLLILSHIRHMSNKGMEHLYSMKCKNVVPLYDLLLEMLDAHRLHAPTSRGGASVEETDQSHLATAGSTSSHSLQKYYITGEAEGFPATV

[4] = target: T4, 17-beta-hydroxysteroid dehydrogenase type 3 (Homo sapiens, UniProt P37058)
T4 sequence (P37058 whole entry): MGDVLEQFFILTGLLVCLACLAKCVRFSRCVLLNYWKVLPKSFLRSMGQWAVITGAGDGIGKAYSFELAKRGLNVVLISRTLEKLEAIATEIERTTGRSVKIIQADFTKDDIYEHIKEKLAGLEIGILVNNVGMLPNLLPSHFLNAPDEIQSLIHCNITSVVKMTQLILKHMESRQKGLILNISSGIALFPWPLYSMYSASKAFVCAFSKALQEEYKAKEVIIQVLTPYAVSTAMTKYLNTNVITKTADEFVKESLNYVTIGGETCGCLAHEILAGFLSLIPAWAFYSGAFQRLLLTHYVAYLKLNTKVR
Description: Inhibition of human recombinant 17-beta-HSD3 expressed in human HeLa cells using androstenedione as substrate preincubated for 30 mins prior substrate addition measured after 120 mins by spectrophotometry

[5] = target: T5, Androgen receptor (Homo sapiens) (UniProt P10275); test: Agonist activity at human androgen receptor expressed in human HeLa cells assessed as DHT-induced response after 40 hrs by luciferase/beta-galactosidase-based reporter gene assay; assay type: functional, cell-based
T5 sequence (whole entry): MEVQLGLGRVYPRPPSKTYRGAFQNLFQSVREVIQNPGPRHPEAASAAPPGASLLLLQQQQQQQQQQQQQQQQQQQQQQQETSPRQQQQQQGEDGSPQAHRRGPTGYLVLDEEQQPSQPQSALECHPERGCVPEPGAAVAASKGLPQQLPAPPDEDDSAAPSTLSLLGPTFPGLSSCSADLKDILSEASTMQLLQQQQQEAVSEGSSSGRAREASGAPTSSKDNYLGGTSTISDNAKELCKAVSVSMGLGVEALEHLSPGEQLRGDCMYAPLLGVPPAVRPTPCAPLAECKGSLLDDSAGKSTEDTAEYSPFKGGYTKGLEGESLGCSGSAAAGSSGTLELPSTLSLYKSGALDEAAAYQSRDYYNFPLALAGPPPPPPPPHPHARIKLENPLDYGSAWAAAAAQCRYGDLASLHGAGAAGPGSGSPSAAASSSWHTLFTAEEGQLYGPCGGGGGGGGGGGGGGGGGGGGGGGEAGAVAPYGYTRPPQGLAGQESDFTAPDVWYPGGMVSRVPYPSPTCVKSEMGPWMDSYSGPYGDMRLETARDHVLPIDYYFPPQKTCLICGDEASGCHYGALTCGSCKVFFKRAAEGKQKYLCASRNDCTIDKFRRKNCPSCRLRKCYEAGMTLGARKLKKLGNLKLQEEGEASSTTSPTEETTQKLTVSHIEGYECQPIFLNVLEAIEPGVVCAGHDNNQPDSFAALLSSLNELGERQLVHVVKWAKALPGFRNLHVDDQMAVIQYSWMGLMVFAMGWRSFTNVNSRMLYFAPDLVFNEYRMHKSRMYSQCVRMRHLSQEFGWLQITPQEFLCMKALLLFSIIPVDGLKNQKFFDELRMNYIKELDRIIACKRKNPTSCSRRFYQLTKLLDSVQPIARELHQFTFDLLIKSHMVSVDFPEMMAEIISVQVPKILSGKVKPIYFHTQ

[6] = target: T6, Glucocorticoid receptor (Homo sapiens) (UniProt P04150); test: Agonist activity at human Glucocorticoid receptor expressed in human HeLa cells assessed as DHT-induced response after 40 hrs by luciferase/beta-galactosidase-based reporter gene assay; assay type: functional, cell-based
T6 sequence (whole entry): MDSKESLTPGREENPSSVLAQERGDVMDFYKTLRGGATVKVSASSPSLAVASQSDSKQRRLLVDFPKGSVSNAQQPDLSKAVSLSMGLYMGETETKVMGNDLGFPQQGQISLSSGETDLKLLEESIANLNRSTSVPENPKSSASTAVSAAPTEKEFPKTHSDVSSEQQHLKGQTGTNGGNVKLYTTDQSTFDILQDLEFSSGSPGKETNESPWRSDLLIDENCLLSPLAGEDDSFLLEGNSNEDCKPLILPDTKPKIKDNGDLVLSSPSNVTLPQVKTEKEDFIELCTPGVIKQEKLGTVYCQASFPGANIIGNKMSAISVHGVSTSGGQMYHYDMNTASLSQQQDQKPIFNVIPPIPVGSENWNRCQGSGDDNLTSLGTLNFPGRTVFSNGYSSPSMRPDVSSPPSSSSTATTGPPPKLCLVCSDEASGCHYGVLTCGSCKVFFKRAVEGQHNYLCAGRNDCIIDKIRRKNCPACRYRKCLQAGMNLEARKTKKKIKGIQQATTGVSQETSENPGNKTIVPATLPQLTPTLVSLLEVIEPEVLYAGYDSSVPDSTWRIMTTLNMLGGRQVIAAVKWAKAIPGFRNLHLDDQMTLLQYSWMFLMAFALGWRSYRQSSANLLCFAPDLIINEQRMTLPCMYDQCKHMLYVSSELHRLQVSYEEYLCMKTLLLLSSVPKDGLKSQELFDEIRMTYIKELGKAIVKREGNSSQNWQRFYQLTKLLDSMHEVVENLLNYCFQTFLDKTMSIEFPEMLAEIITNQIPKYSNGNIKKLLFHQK

[7] = target: T5, Androgen receptor (Homo sapiens); test: Antagonist activity at human androgen receptor expressed in human HeLa cells assessed as inhibition of DHT-induced response after 40 hrs by luciferase/beta-galactosidase-based reporter gene assay; assay type: functional, cell-based
[8] = target: T6, Glucocorticoid receptor (Homo sapiens); test: Antagonist activity at human GR receptor expressed in human HeLa cells assessed as inhibition of DHT-induced response after 40 hrs by luciferase/beta-galactosidase-based reporter gene assay; assay type: functional, cell-based
[9] = target: T3, Estrogen receptor (Homo sapiens); test: Agonist activity at human Estrogen receptor ERalpha expressed in human HeLa cells assessed as DHT-induced response after 40 hrs by luciferase/beta-galactosidase-based reporter gene assay; assay type: functional, cell-based

inhibition [1] | inhibition [2] | Activity [3] | IC50 [4] | Activity [5] | Activity [6] | Activity [7] | Activity [8] | Activity [9] | SMILES
inactive | inactive | inactive | 20 nM | inactive | inactive | inactive | inactive | inactive | COc1ccc(N2C(=O)/C(=C/c3ccc(O)c(C)c3)OC2=S)cc1
inactive | inactive | inactive | 190 nM | inactive | inactive | inactive | inactive | inactive | COCCN1C(=O)/C(=C/c2ccc(O)c(Br)c2)SC1=S
inactive | inactive | inactive | 90 nM | inactive | inactive | inactive | inactive | inactive | COc1ccc(N2C(=O)/C(=C/c3ccc(O)cn3)OC2=S)cc1
inactive | inactive | inactive | 2 nM | inactive | inactive | inactive | inactive | inactive | O=C1/C(=C/c2ccc(O)c(Br)c2)OC(=S)N1c1ccc(F)cc1
inactive | inactive | inactive | 67 nM | inactive | inactive | inactive | inactive | inactive | Cc1ccc(N2C(=O)O/C(=C\c3ccc(O)c(Br)c3)C2=O)cn1
inactive | inactive | inactive | 1 nM | inactive | inactive | inactive | inactive | inactive | COc1ccc(N2C(=O)/C(=C/c3cc(F)c(O)c(Cl)c3)OC2=S)cc1
inactive | inactive | inactive | 90 nM | inactive | inactive | inactive | inactive | inactive | COc1ccc(CN2C(=O)/C(=C/c3ccc(O)c(Br)c3)SC2=S)cc1
inactive | inactive | inactive | 4 nM | inactive | inactive | inactive | inactive | inactive | COc1ccc(N2C(=O)/C(=C/c3ccc(O)c(Cl)c3)OC2=S)cc1
inactive | inactive | inactive | 90 nM | inactive | inactive | inactive | inactive | inactive | COc1ccc(N2C(=O)/C(=C(/C)c3ccc(O)c(Br)c3)SC2=S)cc1
inactive | inactive | inactive | 60 nM | inactive | inactive | inactive | inactive | inactive | COc1ccccc1N1C(=O)/C(=C/c2ccc(O)c(Br)c2)OC1=S
inactive | inactive | inactive | 42 nM | inactive | inactive | inactive | inactive | inactive | COc1ccc(N2C(=O)/C(=C/c3ccc(O)c(Br)n3)OC2=S)cc1
